Read-outs that look alike come from different tables or passages of the source. Residues, ends and D or L forms follow the SMILES beside them.
What was measured:
6×His-IKKβ(1-669) EE = biological target: T1, 6×His-IKKβ(1-669) EE (Homo sapiens, UniProt O14920, S177E/S181E); test: MBP-pulldown of recombinant IKKβ by MBP-peptide fusions; format: binding; settings: 0.3 μM IKKβ, Western blot
T1 construct: a nearly full-length (residues 1-669) and constitutively active (S177E/S181E) mutant construct of human IKKβ; made in house; host or cells: Sf21 insect cells (baculovirus)
T1 sequence (O14920 1-669 S177E/S181E): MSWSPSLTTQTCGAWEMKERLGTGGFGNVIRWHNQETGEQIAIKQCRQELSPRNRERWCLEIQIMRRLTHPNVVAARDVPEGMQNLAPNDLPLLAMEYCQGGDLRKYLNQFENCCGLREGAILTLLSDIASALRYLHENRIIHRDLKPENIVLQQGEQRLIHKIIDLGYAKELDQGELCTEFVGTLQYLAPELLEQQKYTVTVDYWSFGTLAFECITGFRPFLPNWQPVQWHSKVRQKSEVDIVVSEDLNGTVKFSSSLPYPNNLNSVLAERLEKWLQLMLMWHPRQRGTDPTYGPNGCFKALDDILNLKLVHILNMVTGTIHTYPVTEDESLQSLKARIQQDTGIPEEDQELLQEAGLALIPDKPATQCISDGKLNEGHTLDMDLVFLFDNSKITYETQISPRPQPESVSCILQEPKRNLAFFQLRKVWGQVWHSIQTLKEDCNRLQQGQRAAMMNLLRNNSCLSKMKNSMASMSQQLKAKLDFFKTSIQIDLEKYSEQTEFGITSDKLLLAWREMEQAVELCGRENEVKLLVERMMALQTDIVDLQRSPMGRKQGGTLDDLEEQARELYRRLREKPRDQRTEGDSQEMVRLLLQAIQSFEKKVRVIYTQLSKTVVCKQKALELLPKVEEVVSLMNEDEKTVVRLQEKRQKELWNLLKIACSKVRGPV
Experimental: Experiments were performed in PD buffer (20 mM Tris pH 8.0, 150 mM NaCl, 2 mM DTT). For each experiment, 10 μl of amylose resin (dry bead volume) coupled to MBP-fusion constructs were incubated with […] of purified 6×His-IKKα(10-667) EE and 6×His-IKKβ (1-669) EE constructs adjusted at a concentration of 0.3 μM for 2 hours at 4° C. After two quick washing steps with PD buffer, complexes were eluted by incubation with 20 μl of the same buffer supplemented with 20 mM maltose for 15 minutes at 4° C. After mild centrifugation, supernatants were recovered and migrated onto two separate 10% SDS-PAGE gels. One gel was used for Western blot analysis to detect His-IKKα or His-IKKβ using and anti-6×His antibody (Sigma, #SAB4301134), the other for Coomassie staining to detect MBP-fusion proteins. Quantification of band intensity was done using the Image J software.

IKKβ(1-669) EE homodimer = biological target: T2, IKKβ(1-669) EE homodimer (Homo sapiens, UniProt O14920, S177E/S181E); test: Isothermal titration calorimetry (ITC) of peptide binding to IKKβ homodimer; settings: for N (binding stoichiometry of IKKβ: pep) / TΔS / ΔG / ΔH: 25° C.; for N (binding stoichiometry of IKKβ: pep): 1:1 binding model
T2 construct: a nearly full-length (residues 1-669) and constitutively active (S177E/S181E) mutant construct of human IKKβ; 6×His (followed by TEV site) (N, cleaved yes); made in house; host or cells: Sf21 insect cells (baculovirus)
T2 sequence (O14920 1-669 S177E/S181E): T1 sequence (O14920 1-669 S177E/S181E)
Experimental: All experiments were performed in ITC buffer (20 mM HEPES pH 8.0, 150 mM NaCl, 1 mM TCEP) unless otherwise stated. Purified IKKα(10-667) EE and IKKβ(1-669) EE protein samples were dialyzed overnight against ITC buffer at 4° C. Just before the ITC experiments, IKKα or IKKβ samples were concentrated, incubated at room temperature for 30 minutes and centrifuged at 11000 g to remove eventual precipitate. The final concentrations of IKKα and IKKβ in the sample cell varied between 22 and 50 μM depending on the measurement. HPLC purified synthetic peptides (IκBα pep) comprising residues 297-317 of IκBα were further desalted using a Nap5 (GE Healthcare, #17-0853-01) column equilibrated in milliQ water, lyophilized and then resuspended in ITC buffer. The concentration of peptides in the syringe varied between 220 and 975 μM depending on the measurement.
All ITC measurements were performed using a PEAQ-ITC MALVERN instrument. The titration parameters were set as following: temperature 25° C., reference power 10 μcal/s, feedback=high, stirring speed 750 RPM, initial delay 60 s, first injection 0.4 μl in 0.8 s and the remaining 19 injections were 2 μL in 4 s with 120 s of spacing. The data were fitted to a 1:1 binding model. All data were processed using NITPIC software and global fitting of two datasets was carried out using SEDPHAD.
To evaluate binding affinities, isothermal titration calorimetry (ITC) experiments were performed using a synthetic peptide that comprises the YDDφXφ motif plus the N-terminal acidic patch (residues 297-317, named IκBα pep hereafter) and purified IKKβ(1-669) EE homodimer or an equivalent construct of the IKKα homodimer (i.e. IKKα(10-667) S176E/S180E, named IKKα(10-667) EE hereafter). […] ITC analyses on the IKKα/β heterodimer were prevented by strong aggregation propensity at the concentrations required for these experiments.
All ITC experiments were performed at 25° C. The data were fitted to a 1:1 binding model. N refers to the binding stoichiometry of IKKα/β: pep, meaning that approximately half of total IKKα/β concentration binds pep ligand in agreement with the dimer form of IKKα/β being binding competent. The values for the IKKα interaction with IRF7 pep should be regarded as estimates due to low affinity and weakly exothermic binding, and therefore high experimental error and fitting uncertainty. All data were processed using NITPIC software and global fitting of two datasets was carried out using SEDPHAD.

Structure (SMILES) | interaction with IKKβ by pulldown (6×His-IKKβ(1-669) EE) | enhancement of affinity to IKKβ relative to IκBα pep wt (IKKβ(1-669) EE homodimer; ITC) [fold] | N (binding stoichiometry of IKKβ: pep) (IKKβ(1-669) EE homodimer; ITC) | TΔS (IKKβ(1-669) EE homodimer; ITC, IKKβ) [kcal/mol] | ΔG (IKKβ(1-669) EE homodimer; ITC, IKKβ) [kcal/mol] | ΔH (IKKβ(1-669) EE homodimer; ITC, IKKβ) [kcal/mol] | Kd (IKKβ(1-669) EE homodimer; ITC, IKKβ, read-out: KD) [µM] | Kd (IKKβ(1-669) EE homodimer) [µM]
CC(C)C[C@H](NC(=O)[C@@H](NC(=O)[C@H](CC(C)C)NC(=O)[C@H](CCCNC(=N)N)NC(=O)[C@H](CCC(N)=O)NC(=O)CNC(=O)CNC(=O)[C@H](Cc1ccccc1)NC(=O)[C@@H](NC(=O)[C@H](CC(C)C)NC(=O)[C@H](CC(=O)O)NC(=O)[C@H](CC(=O)O)NC(=O)[C@H](Cc1ccc(O)cc1)NC(=O)[C@@H]1CCCN1C(=O)[C@H](CC(C)C)NC(=O)[C@H](CCC(=O)O)NC(=O)[C@H](CC(=O)O)NC(=O)[C@H](CCC(=O)O)NC(=O)[C@@H](NC(=O)[C@H](Cc1ccccc1)NC(=O)[C@@H](N)CCC(=O)O)[C@@H](C)O)C(C)C)[C@@H](C)O)C(=O)O [IkBα pep C308L] (H-EFTEDELPYDDLVFGGQRLTL-OH; N-terminus and C-terminus assumed) | clearly enhance binding to IKKβ | 15 | 0.63 | -4.59 | -7.61 | -12.2 | 2.6 | 
CC(C)C[C@H](NC(=O)[C@@H](NC(=O)[C@H](CC(C)C)NC(=O)[C@H](CCCNC(=N)N)NC(=O)[C@H](CCC(N)=O)NC(=O)CNC(=O)CNC(=O)[C@H](Cc1ccccc1)NC(=O)[C@@H](NC(=O)[C@H](CS)NC(=O)[C@H](CC(=O)O)NC(=O)[C@H](CC(=O)O)NC(=O)[C@H](Cc1ccc(O)cc1)NC(=O)[C@@H]1CCCN1C(=O)[C@H](CC(C)C)NC(=O)[C@H](CCC(=O)O)NC(=O)[C@H](CC(=O)O)NC(=O)[C@H](CCC(=O)O)NC(=O)[C@@H](NC(=O)[C@H](Cc1ccccc1)NC(=O)[C@@H](N)CCC(=O)O)[C@@H](C)O)C(C)C)[C@@H](C)O)C(=O)O [IκBα pep] (H-EFTEDELPYDDCVFGGQRLTL-OH; N-terminus and C-terminus assumed) |  |  | 0.58 | -9.78 | -6.00 | -15.8 |  | 40

From US20260265321A1, “PEPTIDE AND POLYPEPTIDE INHIBITING THE NF-KB SIGNALING PATHWAY” (Centre National de la Recherche Scientifique, priority 2023, published 2026)
